In patent publication US11542298B2, “Hydroxysteroid compounds, their intermediates, process of preparation, composition and uses thereof” (Epirium Bio Inc., priority 2014, dated 2023):
Values joined by “and” are separate entries in the source; they are usually repeats but may differ in a detail not shown here. Equal values may be shown once.

test system: AMP KINASE; experiment: AMP KINASE phosphorylation, cell-based fluorescent ELISA (BioAssay Systems)
Experimental: The compounds of the present invention were tested for their activity on AMP KINASE. The activity on AMP KINASE was evaluated by quantitative fluorescent immunoenzymatic assay of AMP KINASE phosphorylation status in cultured cells. The 5-AMP-activated protein kinase (AMP KINASE) is a key sensor of intracellular energy balance. AMP KINASE is activated in response to an increase in the AMP/ATP ratio which can be caused by a number of factors such as muscle contraction, starvation, or hypoxia. AMP KINASE is a heterotrimeric protein complex comprising of α—(63 kDa), β—(38 kDa) and γ—(38 kDa) subunits. For each subunit, isoforms have been identified (α1, α2, β1, β2, γ1, γ2, γ3) which theoretically allow the formation of 12 different proteins. The α-subunit contains a serine/threonine kinase domain and the regulatory subunits contain binding sites for AMP and ATP (γ-subunit) and for glycogen (β-subunit). AMP KINASE is activated by phosphorylation on Thr-172 within the catalytic domain. AMP binding results in a 2 to 5-fold increase in AMP KINASE activity compared to the basal level. Binding of AMP to the γ-subunit causes allosteric activation of the kinase and induces a conformational change in the kinase domain that protects AMP KINASE from dephosphorylation of Thr-172.
BioAssay Systems' cell-based ELISA measure phosphorylated AMP KINASE in whole cells and normalizes the signal to the total protein content. The antibody recognizes both α-subunits and, thus, can be used for cells from all tissues (human, mouse, rat). This simple and efficient assay eliminates the need for cell lysate preparation and can be used to study AMP KINASE regulation in short-term and long-term assays. In this assay, cells grown in 96-well plates are fixed and permeabilized in the wells. AMP KINASE phosphorylation (pAMPK) is measured using a fluorescent ELISA followed by total protein measurement in each well.
A few illustrative compounds of the present invention were tested at 10 nM and the AMPkinase activation of the compounds is listed at Table 2: […]

Row | Structure (SMILES) | AMPKinase Activation at 10 nM
1 | C[C@]12CCC(=O)NC1=CCC1C2[C@@H](O)C[C@]2(C)C(=O)CCC12 (stereo partly drawn) [Compound 1005, (4aR,5S,6aS)5-hydroxy-4a,6a-dimethyl-4,4a,4b,5,6,6a,9,9a,9b,- 10-decahydro-1H-indeno[5,4-f]-quinoline-2,7(3H,8H)-dione] | 1.85
2 | CC(=O)C1CCC2C3CC=C4NC(=O)CC[C@]4(C)C3[C@@](C)(O)C[C@]12C (stereo partly drawn) [Compound 1008, (4aR,5S,6aS)-7-acetyl-4,4a,4b,5,- 6,6a,7,8,9,9a,9b,10-dodecahydro-5-hydroxy-4a,5,6a-trimethyl-1H-indeno[5,4-f]quinolin-2(3H)-one] | 1.97
3 | C[C@]12C=CC(=O)C=C1CCC1C2[C@@H](O)C[C@@]2(C)C1CC[C@@H]2C(=O)O (stereo partly drawn) [Compound 1013, (10R,11S,13S,17S)-11-hydroxy-10,13-dimethyl-3-oxo-6,7,8,9,- 10,11,12,13,14,15,16,17-dodeca-hydro-3H-cyclopenta[a]-phenan-threne-17-carboxylic acid] | 1.79
4 | CN(C)C(=O)[C@H]1CCC2C3CCC4=CC(=O)C=C[C@]4(C)C3[C@@H](O)C[C@@]21C (stereo partly drawn) [Compound 1014, (10R,11S,13S,17S)-11-hydroxy-N,N,10,13-tetramethyl-3-oxo-6,7,8,9,10,11,12,13,14,15,16,17-dodecahydro-3H-cyclopenta[a]-phenanthrene-17-carboxamide] | 1.80
5 | CC(=O)[C@H]1CCC2C3CCC4=CC(=O)C=C[C@]4(C)C3[C@@H](O)C[C@@]21C (stereo partly drawn) [Compound 1015, (10R,11S,13S,17S)-17-acetyl-11-hydroxy-10,13-dimethyl-6,7,8,9,- 10,11,12,13,14,13,16,17-dodeca-hydro-3H-cyclopenta[a]-phenan-thren-3-one] | 2.23
6 | CC(O)[C@H]1CCC2C3CCC4=CC(=O)C=C[C@]4(C)C3[C@@H](O)C[C@@]21C (stereo partly drawn) [Compound 1016, (10R,11S,13S,17S)-11-hydroxy-17-((R)-1-hydroxyethyl)-10,13-dimethyl-6,7,8,9,10,11,12,13,- 14,15,16,17-dodecahydro-3H-cyclopenta[a]phenanthren-3-one] | 2.38
7 | C[C@]12CCC(=O)NC1=CCC1C2[C@@H](O)C[C@@]2(C)C1CCC21OCCO1 (stereo partly drawn) [Compound 1017, (4a′R,5′S,6a′S)-5′-hydroxy-4a′,6a′-dimethyl-3′,4′,4a′,4b′,5′,6′,6a′,8′,- 9′,9a′,9b′,10′-dodecahydrospiro-[[1,3]dioxolane-2,7′-indeno[5,4-f]-quinolin]-2′(1′H)-one] | 2.08
8 | C[C@]12CCC(=O)NC1=CCC1C2[C@](C)(O)C[C@]2(C)C(=O)CCC12 (stereo partly drawn) [Compound 1018, (4aR,5R,6aS)-5-hydroxy-4a,5,6a-trimethyl-4,4a,4b,5,6,6a,9,9a,9b,- 10-decahydro-1H-indeno[5,4-f]-quinoline-2,7(3H,8H)-dione] | 2.19
9 | C[C@]12C[C@H](O)C3C(CC=C4NC(=O)CC[C@@]43C)C1CCC2O (stereo partly drawn) [Compound 1019, (4aR,5S,6aS)-5,7-dihydroxy-4a,6a-dimethyl-4,4a,4b,5,6,6a,- 7,8,9,9a,9b,10-dodecahydro-1H-indeno[5,4-f]quinolin-2(3H)-one] | 2.23
10 | C[C@]12CCC(=O)NC1=CCC1C2[C@@H](O)C[C@]2(C)/C(=N\O)CCC12 (stereo partly drawn) [Compound 1021, (4aR,5S,6aS,Z)-5-hydroxy-7-(hydroxyimino)-4a,6a-dimethyl-4,4a,4b,5,6,6a,7,8,9,9a,9b,10-dodecahydro-1H-indeno[5,4-f]-quinolin-2(3H)-one] | 2.23
11 | CN1C(=O)CC[C@@]2(C)C1=CCC1C3CCC(O)[C@@]3(C)C[C@H](O)C12 (stereo partly drawn) [Compound 1022, (4aR,5S,6aS)-5,7-dihydroxy-1,4a,6a-trimethyl-4,4a,4b,5,6,6a,- 7,8,9,9a,9b,10-dodecahydro-1H-indeno[5,4-f]quinolin-2(3H)-one] | 2.87
12 | C[C@]12CCC(=O)NC1CCC1C3CCC(O)[C@@]3(C)C[C@H](O)C12 (stereo partly drawn) [Compound 1023, (4aR,5S,6aS)-5,7-dihydroxy-4a,6a-dimethyltetradecahydro-1H-indeno[5,4-f]quinolin-2(3H)-one] | 2.46
13 | CC1([C@H]2CCC3C4CC=C5NC(=O)CC[C@]5(C)C4[C@@H](O)C[C@@]32C)OCCO1 (stereo partly drawn) [Compound 1025, (4aR,5S,6aS,7S)-5-hydroxy-4a,6a-dimethyl-7-(2-methyl-1,3-dioxolan-2-yl)-4,4a,4b,5,6,6a,- 7,8,9,9a,9b,10-dodecahydro-1H-indeno[5,4-f]quinolin-2(3H)-one] | 2.11
14 | CC1([C@H]2CCC3C4CC=C5NC(=O)CC[C@]5(C)C4[C@@](C)(O)C[C@@]32C)OCCO1 (stereo partly drawn) [Compound 1026, (4aR,5S,6aS,7S)-5-hydxoxy-4a,5,6a-trimethyl-7-(2-methyl-1,3-dioxolan-2-yl)-4,4a,4b,5,6,6a,- 7,8,9,9a,9b,10-dodecahydro-1H-indeno[5,4-f]quinolin-2(3H)-one] | 1.69 and 2.17
15 | C[C@]12CCC(=O)NC1=CCC1C2[C@@H](O)C[C@@]2(C)C1CC[C@@H]2C(=O)O (stereo partly drawn) [Compound 1027, (4aR,5S,6aS,7S)-5-hydroxy-4a,6a-dimethyl-2-oxo-2,3,4,4a,4b,5,6,- 6a,7,8,9,9a,9b,10-tetradecahydro-1H-indeno[5,4-f]quinoline-7-carboxylic acid] | 1.85
16 | COc1ccc2c(c1)CCC1C2[C@@H](O)C[C@]2(C)C(C(C)O)CCC12 (stereo partly drawn) [Compound 1030, (11S,13S)-17-(1-hydroxyethyl)-3-methoxy-13-methyl-7,8,9,11,12,- 13,14,15,16,17-decahydro-6H-cyclopenta[a]phenanthren-11-ol] | 1.51
17 | Cc1ccc(O)c2c1C1C(CC2)C2CC[C@H](C(=O)O)[C@@]2(C)C[C@@H]1O (stereo partly drawn) [Compound 1035, (11S,13S,17S)-4,11-dihydroxy-1,13-diinethyl-7,8,9,11,12,13,- 14,15,16,17-decahydro-6H-cyclopenta[a]phenanthrene-17-carboxylic acid] | 1.76
18 | CC(C)(O)[C@H]1CCC2C3CC=C4NC(=O)CC[C@]4(C)C3[C@@H](O)C[C@@]21C (stereo partly drawn) [Compound 1038, (4aR,5S,6aS,7S)-5-hydroxy-7-(2-hydroxypropan-2-yl)-4a,6a-dimethyl-4,4a,4b,5,6,6a,7,8,9,- 9a,9b,10-dodecahydro-1H-indeno-[5,4-f]quinolin-2(3H)-one] | 1.70
